Results published in patent publication US20100121108A1, “PROCESS FOR SYNTHESIZING DESVENLAFAXINE FREE BASE AND SALTS OR SOLVATES THEREOF” (MEDICHEM, S.A., priority 2006, published 2010).

Key:
[1] = Particle size by Malvern Mastersizer S (volume distribution); assay type: physicochemical
Procedure: The particle size for desvenlafaxine succinate was measured using a Malvern Mastersizer S particle size analyzer with an MS1 Small Volume Sample Dispersion Unit stirred cell. A 300RF mm lens and a beam length of 2.4 mm were used. Samples for analysis were prepared by dispersing a weighed amount of desvenlafaxine succinate (approximately 0.1 g) in 20 mL of Lecithin Solution, previously prepared by dilution of 1.5 g of Soybean Lecithin to 200 mL of Isopar G. Mix gently until Lecithin dissolves (Lecithin solution). If it is necessary the solution can be sonicated. The suspension was delivered drop-wise to a background corrected measuring cell previously filled with dispersant (Isopar G) until the obscuration reached the desired level. Volume distributions were obtained for three times. Before and after the analysis, purge the sample and flush the MS1 unit with ethanol twice and with the dispersant at least three times. For characterization, the values of D10, D50 and D90 (by volume) were specifically listed, each one being the mean of the […] values available for each characterization parameter.

[2] = BET specific surface area (Micromeritics ASAP2010, N2 adsorption); assay type: physicochemical; settings: N2 at 77.3 K
Procedure: The BET (Brunauer, Emmett and Teller) specific surface area for desvenlafaxine succinate was measured using a Micromeritics ASAP2010 equipment. Samples for analysis were degassed at 30° C.-70° C. under vacuum for about two hours. The determination of the adsorption of N2 at 77.3° K was measured for relative pressures in the range of 0.05-0.3 for a weighed amount of desvenlafaxine succinate (i.e., approximately 0.5 g).

[3] = milled and sieved desvenlafaxine succinate

Question: With `CN(C)CC(c1ccc(O)cc1)C1(O)CCCCC1` (centres unmarked) [desvenlafaxine succinate] as the compound, how does the “D50 (v) particle size” value [1, 3] read?
Answer: approximately 41 μm

Question: And the “D90 (v) particle size” value [1, 3]?
Answer: approximately 155 μm

Question: What about the “D10 (v) particle diameter less than” value ([1]; summary statement) of the same compound?
Answer: approximately 4 μM

Question: What about the surface area [2] of the same compound?
Answer: 0.8457±0.0039 m^2/g

Question: What about the surface area ([2]; listed as Desvenlafaxine succinate) of the same compound?
Answer: approximately 0.8457±0.0039 m^2/g
